This data set is described as follows: Pharmacokinetic study in dogs after oral dosing of tablets with SNAC. In kind it is in vivo, Beagle dogs. Here is the method:
The purpose of this example is to determine the half-life and plasma exposure in vivo of the compounds of the present invention after p.o. administration to beagle dogs, i.e. the terminal half-life and concentration of test substance that reaches circulation with time. This is done in a pharmacokinetic (PK) study, where these parameters of the compound in question are determined. By terminal half-life is generally meant the period of time it takes to halve a certain plasma concentration, measured after the initial distribution phase.
The amount of SNAC in the tablet composition was 100-300 mg, the amount of magnesium stearate in the tablet composition was 7.7 mg, and the target amount of each test substance in the tablet composition was 3-4 mg.
Male beagle dogs, 1-7 years of age and weighing 9-17 kg during the study period, were included in the study. The dogs were dosed in a fasting state. The dogs were group housed in pens (12 hours light: 12 hours dark), and fed individually and restrictedly once daily with Royal Canin Medium Adult dog food (Royal Canin Products, China Branch, or Brogaarden A/S, Denmark). The dogs were used for repeated PK studies with a suitable wash-out period between successive dosing. An appropriate acclimatization period was given prior to initiation of the first PK study. All handling, dosing, and blood sampling of the animals were performed by trained and skilled staff. Before the studies, the dogs were fasted overnight and from 0 to 4 hours after dosing. The dogs were restricted to water 1 hour before dosing until 4 hours after dosing, but otherwise had ad libitum access to water during the whole period.
The compositions were administered by a single oral dosing to the dogs in groups of 6-8 dogs. […] The mouth was then closed, and 10 mL of tap water was given by syringe or gavage to facilitate swallowing of the tablet.
For each blood sample time point, approximately 0.8 mL of whole blood was collected in a 1.5 mL EDTA-coated tube, which was gently turned to mix the sample with EDTA. Blood samples were collected in EDTA buffer (8 mM) and then centrifuged at 4° C. and 2000g for 10 minutes. Plasma was pipetted into Micronic tubes on dry ice, and kept at −20° C. or lower until analysis. Blood samples were taken as appropriate, for example from a venflon in the cephalic vein in the front leg for the first 2 hours and then with syringe from the jugular vein for the rest of the time points. The first few drops were allowed to drain from the venflon to avoid heparin saline from the venflon in the sample.
All blood samples were collected into test tubes containing EDTA for stabilisation and kept on ice until centrifugation. Plasma was separated from whole blood by centrifugation and the plasma was stored at −20° C. or lower until analysis.
The plasma was analysed for test substance using LC-MS (Liquid Chromatography-Mass Spectrometry) as known to the person skilled in the art. […] RP-HPLC separation was achieved using a linear gradient of 1:1 acetonitrile/methanol in 1% aqueous formic acid using either: a Phenomenex Onyx Monolithic C18 column (50×2.0 mm) and a flow rate of 0.8 mL/min at 30° C.; or an Agilent Poroshell 120 SB-C18 column (50×2.1 mm, 2.7 μm) at a flow rate of 0.4 mL/min at 60° C. The mass spectrometer was operated in either positive ionization SIM mode or positive ionization PRM mode.
For each individual animal, a plasma concentration-time profile was analysed by a non-compartmental model in Pharsight Phoenix WinNonLin ver. 6.4 software or other relevant software for PK analysis, and the resulting terminal half-life (t1/2), maximum plasma concentration per dose (Cmax/D), time for maximum plasma concentration (tmax), and area under the curve to infinity per dose (AUC/D) were determined. Summary statistics of pharmacokinetic results were presented as median (for tmax), harmonic mean ([…]), or arithmetic mean (Cmax, AUC).

Starred links: 1 amine or outer side, 2 acyl side, 3 side chain; linkers in the order of their positions; H or OH if unused. Non-standard residues stand in square brackets, D forms with d. Residues, ends and D or L forms follow the SMILES beside them. Groups on a side chain read outwards from the residue. *: point of attachment. C20 diacid = O=C(O)CCCCCCCCCCCCCCCCCCC(=O)*; C18 diacid = O=C(O)CCCCCCCCCCCCCCCCC(=O)*; γGlu = O=C(O)[C@H](CCC(=O)[*:2])N[*:1]; εLys = N[C@@H](CCCCN[*:1])C(=O)[*:2]; AEEA = NCCOCCOCC(=O)O; Aib = CC(C)(N)C(=O)O

Where the note is “dog, in vivo, po”, `CC[C@H](C)[C@H](NC(=O)[C@H](Cc1ccccc1)NC(=O)[C@H](CCC(=O)O)NC(=O)[C@H](CCCNC(=N)N)NC(=O)[C@H](C)NC(=O)[C@H](C)NC(=O)[C@H](CCC(N)=O)NC(=O)[C@H](CCCCNC(=O)[C@@H](N)CCCCNC(=O)[C@@H](N)CCCCNC(=O)CC[C@H](NC(=O)CCCCCCCCCCCCCCCCC(=O)O)C(=O)O)NC(=O)[C@H](CCC(=O)O)NC(=O)[C@H](CC(C)C)NC(=O)[C@H](Cc1ccc(O)cc1)NC(=O)[C@@H](NC(=O)[C@H](CO)NC(=O)[C@H](Cc1ccc(O)cc1)NC(=O)[C@H](CC(=O)O)NC(=O)[C@H](CO)NC(=O)[C@@H](NC(=O)[C@H](Cc1ccccc1)NC(=O)[C@@H](NC(=O)CNC(=O)[C@H](CCC(=O)O)NC(=O)C(C)(C)NC(=O)[C@@H](N)Cc1ccc(O)cc1)[C@@H](C)O)[C@@H](C)O)[C@@H](C)CC)C(=O)N[C@@H](CC(N)=O)C(=O)N[C@@H](Cc1c[nH]c2ccccc12)C(=O)N[C@@H](CC(C)C)C(=O)N[C@@H](CC(C)C)C(=O)N[C@@H](C)C(=O)NCC(=O)NCC(=O)N1CCC[C@H]1C(=O)N[C@@H](CO)C(=O)N[C@@H](CO)C(=O)NCC(=O)N[C@@H](C)C(=O)N1CCC[C@H]1C(=O)N1CCC[C@H]1C(=O)N1CCC[C@H]1C(=O)N[C@@H](CO)C(=O)O` [Compound No. 11] (H-Y[Aib]EGTFTSDYSIYLEK([εLys-εLys-γGlu-C18 diacid])QAAREFINWLLAGGPSSGAPPPS-OH) registered an AUC/Dose of 7.1 kg·h/L and a Cmax/Dose of 0.19 kg/L.

Regarding `CC[C@H](C)[C@H](NC(=O)[C@H](Cc1ccccc1)NC(=O)[C@H](CCC(=O)O)NC(=O)[C@H](CCCNC(=N)N)NC(=O)[C@H](C)NC(=O)[C@H](C)NC(=O)[C@H](CCC(N)=O)NC(=O)[C@H](CCCCNC(=O)COCCOCCNC(=O)COCCOCCNC(=O)CC[C@H](NC(=O)CCCCCCCCCCCCCCCCC(=O)O)C(=O)O)NC(=O)[C@H](CCC(=O)O)NC(=O)[C@H](CC(C)C)NC(=O)[C@H](Cc1ccc(O)cc1)NC(=O)[C@@H](NC(=O)[C@H](CO)NC(=O)[C@H](Cc1ccc(O)cc1)NC(=O)[C@H](CC(=O)O)NC(=O)[C@H](CO)NC(=O)[C@@H](NC(=O)[C@H](Cc1ccccc1)NC(=O)[C@@H](NC(=O)CNC(=O)[C@H](CCC(=O)O)NC(=O)C(C)(C)NC(=O)[C@@H](N)Cc1ccc(O)cc1)[C@@H](C)O)[C@@H](C)O)[C@@H](C)CC)C(=O)N[C@@H](CCC(=O)O)C(=O)N[C@@H](Cc1c[nH]c2ccccc12)C(=O)N[C@@H](CC(C)C)C(=O)N[C@@H](CC(C)C)C(=O)N[C@@H](C)C(=O)NCC(=O)NCC(=O)N1CCC[C@H]1C(=O)N[C@@H](CO)C(=O)N[C@@H](CO)C(=O)NCC(=O)N[C@@H](C)C(=O)N1CCC[C@H]1C(=O)N1CCC[C@H]1C(=O)N1CCC[C@H]1C(=O)N[C@@H](CO)C(=O)O` [Compound No. 10] (H-Y[Aib]EGTFTSDYSIYLEK([AEEA-AEEA-γGlu-C18 diacid])QAAREFIEWLLAGGPSSGAPPPS-OH), for the setting “dog, in vivo, po”, the AUC/Dose amounted to 8.4 kg·h/L and the Cmax/Dose is 0.20 kg/L.

Consider `CC[C@H](C)[C@H](NC(=O)[C@H](Cc1ccccc1)NC(=O)[C@H](CCC(=O)O)NC(=O)[C@H](CCCNC(=N)N)NC(=O)[C@H](C)NC(=O)[C@H](C)NC(=O)[C@H](CCC(N)=O)NC(=O)[C@H](CCCCNC(=O)[C@@H](N)CCCCNC(=O)[C@@H](N)CCCCNC(=O)CC[C@H](NC(=O)CCCCCCCCCCCCCCCCCCC(=O)O)C(=O)O)NC(=O)[C@H](CCC(=O)O)NC(=O)[C@H](CC(C)C)NC(=O)[C@H](Cc1ccc(O)cc1)NC(=O)[C@@H](NC(=O)[C@H](CO)NC(=O)[C@H](Cc1ccc(O)cc1)NC(=O)[C@H](CC(=O)O)NC(=O)[C@H](CO)NC(=O)[C@@H](NC(=O)[C@H](Cc1ccccc1)NC(=O)[C@@H](NC(=O)CNC(=O)[C@H](CCC(=O)O)NC(=O)C(C)(C)NC(=O)[C@@H](N)Cc1ccc(O)cc1)[C@@H](C)O)[C@@H](C)O)[C@@H](C)CC)C(=O)N[C@@H](CC(N)=O)C(=O)N[C@@H](Cc1c[nH]c2ccccc12)C(=O)N[C@@H](CC(C)C)C(=O)N[C@@H](CC(C)C)C(=O)N[C@@H](C)C(=O)NCC(=O)NCC(=O)N1CCC[C@H]1C(=O)N[C@@H](CO)C(=O)N[C@@H](CO)C(=O)NCC(=O)N[C@@H](C)C(=O)N1CCC[C@H]1C(=O)N1CCC[C@H]1C(=O)N1CCC[C@H]1C(=O)N[C@@H](CO)C(=O)O` [Compound No. 16] (H-Y[Aib]EGTFTSDYSIYLEK([εLys-εLys-γGlu-C20 diacid])QAAREFINWLLAGGPSSGAPPPS-OH), for which, under “dog, in vivo, po”, the AUC/Dose turned out to be 8.6 kg·h/L and the Cmax/Dose was found to be 0.21 kg/L.

In the case of `CC[C@H](C)[C@H](NC(=O)[C@H](Cc1ccccc1)NC(=O)[C@H](CCC(=O)O)NC(=O)[C@H](CCC(=O)O)NC(=O)[C@H](C)NC(=O)[C@H](C)NC(=O)[C@H](CCC(N)=O)NC(=O)[C@H](CCCCNC(=O)[C@@H](N)CCCCNC(=O)[C@@H](N)CCCCNC(=O)CC[C@H](NC(=O)CCCCCCCCCCCCCCCCC(=O)O)C(=O)O)NC(=O)[C@H](CCC(=O)O)NC(=O)[C@H](CC(C)C)NC(=O)[C@H](CC(C)C)NC(=O)[C@@H](NC(=O)[C@H](CO)NC(=O)[C@H](Cc1ccc(O)cc1)NC(=O)[C@H](CC(=O)O)NC(=O)[C@H](CO)NC(=O)[C@@H](NC(=O)[C@H](Cc1ccccc1)NC(=O)[C@@H](NC(=O)CNC(=O)[C@H](CCC(=O)O)NC(=O)C(C)(C)NC(=O)[C@@H](N)Cc1ccc(O)cc1)[C@@H](C)O)[C@@H](C)O)[C@@H](C)CC)C(=O)N[C@@H](CC(N)=O)C(=O)N[C@@H](Cc1c[nH]c2ccccc12)C(=O)N[C@@H](CC(C)C)C(=O)N[C@@H](CC(C)C)C(=O)N[C@@H](C)C(=O)NCC(=O)NCC(=O)N1CCC[C@H]1C(=O)N[C@@H](CO)C(=O)N[C@@H](CO)C(=O)NCC(=O)N[C@@H](C)C(=O)N1CCC[C@H]1C(=O)N1CCC[C@H]1C(=O)N1CCC[C@H]1C(=O)N[C@@H](CO)C(=O)O` [Compound No. 25] (H-Y[Aib]EGTFTSDYSILLEK([εLys-εLys-γGlu-C18 diacid])QAAEEFINWLLAGGPSSGAPPPS-OH), where the note is “dog, in vivo, po”, the Cmax/Dose was 0.30 kg/L.

For `CC[C@H](C)[C@H](NC(=O)[C@H](Cc1ccccc1)NC(=O)[C@H](CCC(=O)O)NC(=O)[C@H](CCCNC(=N)N)NC(=O)[C@H](C)NC(=O)[C@H](C)NC(=O)[C@H](CCC(N)=O)NC(=O)[C@H](CCCCNC(=O)[C@@H](N)CCCCNC(=O)[C@@H](N)CCCCNC(=O)CC[C@H](NC(=O)CCCCCCCCCCCCCCCCC(=O)O)C(=O)O)NC(=O)[C@H](CCC(=O)O)NC(=O)[C@H](CC(C)C)NC(=O)[C@H](Cc1ccc(O)cc1)NC(=O)[C@@H](NC(=O)[C@H](CO)NC(=O)[C@H](Cc1ccc(O)cc1)NC(=O)[C@H](CC(=O)O)NC(=O)[C@H](CO)NC(=O)[C@@H](NC(=O)[C@H](Cc1ccccc1)NC(=O)[C@@H](NC(=O)CNC(=O)[C@H](CCC(=O)O)NC(=O)C(C)(C)NC(=O)[C@@H](N)Cc1ccc(O)cc1)[C@@H](C)O)[C@@H](C)O)[C@@H](C)CC)C(=O)N[C@@H](CCC(=O)O)C(=O)N[C@@H](Cc1c[nH]c2ccccc12)C(=O)N[C@@H](CC(C)C)C(=O)N[C@@H](CC(C)C)C(=O)N[C@@H](CCCNC(=N)N)C(=O)NCC(=O)NCC(=O)N1CCC[C@H]1C(=O)N[C@@H](CCC(=O)O)C(=O)N[C@@H](CO)C(=O)NCC(=O)N[C@@H](C)C(=O)N1CCC[C@H]1C(=O)N1CCC[C@H]1C(=O)N1CCC[C@H]1C(=O)N[C@@H](CO)C(=O)O` [Compound No. 13] (H-Y[Aib]EGTFTSDYSIYLEK([εLys-εLys-γGlu-C18 diacid])QAAREFIEWLLRGGPESGAPPPS-OH), the Cmax/Dose (oral tablet, 100 mg SNAC, 3 mg test substance, Beagle dogs, arithmetic mean) came to 0.29 kg/L.

(Values after patent US20230272029A1, “CO-AGONISTS AT GLP-1 AND GIP RECEPTORS SUITABLE FOR ORAL DELIVERY” (Novo Nordisk A/S, priority 2020, published 2023).)
